Results on 8 compounds are retold here after ChEMBL document CHEMBL3580531, “Biotransformation of Curcumenol by Mucor polymorphosporus” (J Nat Prod, 2015).

The test system of this experiment is RAW264.7. Nature of the experiment: Antiinflammatory activity in mouse RAW264.7 cells assessed as inhibition of LPS-induced nitric oxide production after 1 day by Griess assay. In kind it is functional, cell-based. The following applies: RAW264.7, 24 h. A general note: Griess reagent forms a coloured azo dye with nitrite.
As to `CC1=C[C@@]2(O)O[C@]3(CC2=C(C)C)[C@H]1[C@H](O)C[C@@H]3C`, the IC50 (usually the concentration that gives 50% inhibition) came out at 18.5 µM.
In the case of `CC(C)=C1C[C@@]23O[C@]1(O)C[C@](C)(O)[C@@H]2CC[C@@H]3C` it was greater than 50 µM; in that of `Cc1cc(=O)c(C(C)(C)O)cc2c1C(=O)C[C@@H]2C`, 6.4 µM.
`Cc1cc(C(=O)O)cc2c1C(=O)C[C@@H]2C`: the IC50 turned out to be 2.8 µM.
Next, `CC1=C[C@]2(O)O[C@@]3(CC2=C(C)C)[C@@H](C)CC[C@@H]13` [CURCUMENOL]: 5.4 µM; `CC1=C[C@@]2(O)O[C@@]3(C/C2=C(/C)CO)[C@@H](C)CC[C@@H]13`: 9.6 µM; `COc1ccc2c(c1)c(CC(=O)O)c(C)n2C(=O)c1ccc(Cl)cc1` [INDOMETHACIN]: 14.1 µM.
In the case of `CC(C)=C1C[C@@]23O[C@]1(O)C=C(CO)[C@@H]2CC[C@@H]3C` it was 6.4 µM.
